One series has as its system Aspergillus niger. Description: Antifungal susceptibility disc test (rings of inhibition). The format is cell-based. The conditions noted are these: disc on Sabouraud plate, 48 hrs at room temperature; polymers 100 μg per disc, Amphotericin B 20 μg; NI = No Inhibition. The procedure:
(§1) Each polymer was applied to sterile filter paper discs as a solution (15 mg of compound in 3 mL of solvent). Each disc received 20 μL of solution, and was allowed to dry, giving a final concentration of 100 μg of compound per disc. Adapted from Messer et al., (2007), this protocol was used to test novel compounds for antifungal properties against yeasts and fungi. Compounds were tested for antifungal activity against pure cultures of Saccharomyces cerevisiae, Candida albicans supplied by Ward's Natural Science Ltd. and Aspergillus niger and Aspergillus fumigatus supplied by […]. (Inverness Medical, Ottawa, Ontario, Canada). All cultures were maintained on Sabouraud agar. […] The cultures of A. niger and A. fumigatus were transferred, using an inoculation loop, to new Sabouraud agar and grown for 48 hrs. at 27° C., and 35° C. respectively, to cause sporulation. Triplicates of all the plates and broth cultures were made in case of error or contamination. Using a sterile swab, and aseptic techniques, the cell suspension of S. cerevisiae, and C. albicans were transferred to Sabouraud agar plates and spread evenly, ensuring that the entire surface was inoculated. They were then left to dry for 10 minutes. From the plates containing A. niger and A. fumigatus two small circles containing fungal growth of the A Niger or A Fumigatus fungi were cut from the agar plates, and using a glass/PTFE tissue homogenizer, were mixed and homogenized with 5 ml of sterile MilliQ water to create a suspension of fungal spores. Using a sterile swab, and aseptic techniques, the spore inocula of A. niger and A. fumigatus were transferred to Sabouraud agar plates and spread evenly, ensuring that the entire surface was inoculated. They were then left to dry for 10 minutes. Amphotericin B (20 μg) premade discs were used as a control. Three antibiotic discs containing different compounds were place equidistant apart on each Sabouraud plate. Each compound had three replicates per species. Plates containing S. cerevisiae, and C. albicans were incubated for 18-24 hrs at 37° C., A. niger for 48 hrs at room temperature, and A. fumigatus for 18-24 hrs at 35° C. […] If clear rings of inhibition were present, the diameter was measured twice using a caliper. Halos indicated partial inhibition of growth (Hicks et al., 2008).

The next series relates to Saccharomyces cerevisiae. Described as above. The conditions noted are these: disc on Sabouraud plate, 18-24 hrs at 37° C.; polymers 100 μg per disc, Amphotericin B 20 μg; NI = No Inhibition. The format is cell-based. The procedure: as §1
The next series concerns Candida albicans. The description is as above. The format is cell-based. The conditions noted are these: disc on Sabouraud plate, 18-24 hrs at 37° C.; polymers 100 μg per disc, Amphotericin B 20 μg; NI = No Inhibition. The procedure:
as §1

A further series relates to Aspergillus fumigatus. Described as above. The format is cell-based. The conditions noted are these: disc on Sabouraud plate, 18-24 hrs at 35° C.; polymers 100 μg per disc, Amphotericin B 20 μg; NI = No Inhibition. The protocol: as §1
For the next series, the system named is Pseudomonas aeruginosa. Description: Antibacterial susceptibility disc test (rings of inhibition). The format is cell-based. The conditions noted are these: disc on Mueller-Hinton plate, 18-24 hrs at 37° C.; polymers 100 μg per disc, control discs at given load; NI = No Inhibition. The protocol: (§2) Compounds were tested for antibacterial activity, as described in Ma et al. (2011), against pure cultures of Escherichia coli, Pseudomonas aeruginosa, Bacillus cereus, Proteus mirabilis/hauseri, and Staphylococcus aureus, supplied by Ward's Natural Science Ltd. (St. Catherines, Ontario, Canada). All cultures were maintained on Tryptic Soy agar. These cultures were then transferred using an inoculation loop to 10 mL of Tryptic soy broth, and grown at 37° C. for 24 hours. Triplicates of plate and broth cultures were made in case of error or contamination. Using a sterile swab, and aseptic techniques, the bacterial broth inocula were transferred to Mueller-Hinton plates and spread evenly, ensuring that the entire surface was inoculated. They were then left to dry for 3-5 minutes. The following control discs were used: Penicillin (10 μg), Tetracycline (30 μg), Chloramphenicol (30 μg), and Ampicillin (10 μg). Four antibiotic discs containing different compounds were placed equidistant from each other on a Mueller-Hinton plate. Each compound had three replicates per species. Plates were incubated for 18-24 hrs at 37° C., and then observed for rings of inhibition. If clear rings of inhibition were present, the diameter was measured twice using a caliper. […] Each polymer was applied to sterile filter paper discs as a solution (15 mg of compound in 3 mL of solvent). Each disc received 20 μL of solution, and was allowed to dry, giving a final concentration of 100 μg of compound per disc.

Series [1] relates to Proteus mirabilis/hauseri. The series is described as above. The conditions noted are these: disc on Mueller-Hinton plate, 18-24 hrs at 37° C.; polymers 100 μg per disc, control discs at given load; NI = No Inhibition. The format is cell-based. The protocol: as §2
The test system of the next series is Staphylococcus aureus. Described as above. The format is cell-based. The following applies: disc on Mueller-Hinton plate, 18-24 hrs at 37° C.; polymers 100 μg per disc, control discs at given load; NI = No Inhibition. The procedure:
as §2

In another series the test system is Bacillus cereus. Described as above. The format is cell-based. The conditions noted are these: disc on Mueller-Hinton plate, 18-24 hrs at 37° C.; polymers 100 μg per disc, control discs at given load; NI = No Inhibition. The protocol: as §2
Another series concerns Escherichia coli. The series is described as above. The format is cell-based. Also on record: unit not given here. The following applies: NI = No Inhibition; for diameter of ring of inhibition, E. coli (Table 5): all 10 μg; for diameter of ring of inhibition, E. coli: disc on Mueller-Hinton plate, 18-24 hrs at 37° C., polymers 100 μg per disc, control discs at given load. The procedure:
as §2

Series [2] in a line: Viscosity measurements (Brookfield Synchrolectric viscometer model LVF). The format is physicochemical. The following applies: 1% weight solution in distilled water, pH 7 and 25° C. The procedure: The values in centi-poise (mPa·s, m=milli) were calculated as per the specifications set out by the instrument manufacturer.
The viscosity of the compositions described in Example 5, were also similarly measured, as well as 1% wt. solutions of pure BAC and hp-AETA.

The term viscosity denotes the internal friction of a fluid under shear.

Consider `C[C@@H]1[C@H](O)[C@@H](C)/C=C/C=C/C=C/C=C/C=C/C=C/C=C/[C@H](O[C@@H]2O[C@H](C)[C@@H](O)[C@H](N)[C@@H]2O)C[C@@H]2O[C@](O)(C[C@@H](O)C[C@@H](O)[C@H](O)CC[C@@H](O)C[C@@H](O)CC(=O)O[C@H]1C)C[C@H](O)[C@H]2C(=O)O` [Amphotericin B], for which, in the series on Aspergillus niger, the “diameter of ring of inhibition, A. niger” value stood at 15.5. Moreover, in the series with Saccharomyces cerevisiae, the “diameter of ring of inhibition, S. cerevisiae” value is 8.39. In the series on Candida albicans, the “diameter of ring of inhibition, C. albicans” value is on record as 13.6. The “diameter of ring of inhibition, A. fumigatus” value in the series with Aspergillus fumigatus was 12.5.
As for `CC1(C)S[C@@H]2[C@H](NC(=O)[C@H](N)c3ccccc3)C(=O)N2[C@H]1C(=O)O` [Ampicillin], in the series on Pseudomonas aeruginosa, the “diameter of ring of inhibition, P. aeruginosa” value was 10.2. Further, the “diameter of ring of inhibition, P. hauseri” value in series [1] is on record as 11. In the series on Staphylococcus aureus, the “diameter of ring of inhibition, S. aureus” value is recorded as 40.4. Besides, in the series on Bacillus cereus, the “diameter of ring of inhibition, B. cereus” value amounted to 13.5. Further, in the series on Escherichia coli, the “diameter of ring of inhibition, E. coli (Table 5)” value is 15.4 and the “diameter of ring of inhibition, E. coli” value is 15.0.
Consider `O=C(N[C@H](CO)[C@H](O)c1ccc([N+](=O)[O-])cc1)C(Cl)Cl` [Chloramphenicol], for which, in the series on Pseudomonas aeruginosa, the “diameter of ring of inhibition, P. aeruginosa” value was 21.5. Also, in [1], the “diameter of ring of inhibition, P. hauseri” value was found to be 14.4. In the series on Staphylococcus aureus, the “diameter of ring of inhibition, S. aureus” value came to 24.1. Besides, the “diameter of ring of inhibition, B. cereus” value in the series on Bacillus cereus was 26.3. In the series on Escherichia coli, the “diameter of ring of inhibition, E. coli (Table 5)” value is 17.4 and the “diameter of ring of inhibition, E. coli” value is reported as 19.4.
In the case of `CN(C)[C@@H]1C(O)=C(C(N)=O)C(=O)[C@@]2(O)C(O)=C3C(=O)c4c(O)cccc4[C@@](C)(O)[C@H]3C[C@@H]12` [Tetracycline], in the series on Pseudomonas aeruginosa, the “diameter of ring of inhibition, P. aeruginosa” value turned out to be 9.9. For the same molecule, the “diameter of ring of inhibition, P. hauseri” value in series [1] is 13.7. Besides, the “diameter of ring of inhibition, S. aureus” value with Staphylococcus aureus came out at 24.7. In addition, in the series with Bacillus cereus, the “diameter of ring of inhibition, B. cereus” value is given as 20.3. In the series on Escherichia coli, the “diameter of ring of inhibition, E. coli (Table 5)” value came to 25.3 and the “diameter of ring of inhibition, E. coli” value is listed as 20.4.
Consider Benzalkonium chloride [BAC], for which, in series [2], the viscosity is 3.1 mPa·s.
For the molecule Penicillin, in the series on Pseudomonas aeruginosa, the “diameter of ring of inhibition, P. aeruginosa” value was found to be 7.0. Further, in series [1], the “diameter of ring of inhibition, P. hauseri” value worked out at 19. Also, the “diameter of ring of inhibition, S. aureus” value with Staphylococcus aureus was 43.8. In addition, in the series with Escherichia coli, the “diameter of ring of inhibition, E. coli (Table 5)” value is recorded as 19.5 and the “diameter of ring of inhibition, E. coli” value is recorded as 19.5.

The values above are taken from patent publication US11497701B2, “Multi-functional anti-microbial polymers and compositions containing same” (priority 2015, dated 2022).
